Legend:
[1] = molecular target: T1, Adenosine receptor A1 (Homo sapiens) (UniProt P30542); assay: Effect on forskolin-induced cAMP levels at human A1 adenosine receptor compared to CPA (full agonist, 100% inhibition) and DPCPX(full inverse agonist, 100% stimulation); format: functional
T1 sequence (whole entry): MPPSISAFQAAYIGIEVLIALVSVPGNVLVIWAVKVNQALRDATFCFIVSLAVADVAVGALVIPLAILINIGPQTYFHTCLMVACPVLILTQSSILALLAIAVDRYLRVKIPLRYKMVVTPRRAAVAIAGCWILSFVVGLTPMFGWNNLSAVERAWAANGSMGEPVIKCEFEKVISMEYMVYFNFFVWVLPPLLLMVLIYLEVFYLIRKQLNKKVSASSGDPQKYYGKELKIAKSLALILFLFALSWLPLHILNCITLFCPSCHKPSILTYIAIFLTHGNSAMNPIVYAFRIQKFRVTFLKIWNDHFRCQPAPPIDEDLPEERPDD

[2] = molecular target: T2, Adenosine receptor A3 (Homo sapiens) (UniProt P0DMS8); assay: Percent displacement of [125I]AB-MECA binding to human adenosine A3 receptor expressed in HEK 293 cells at 1 uM; format: cell-based; settings: HEK293
T2 sequence (whole entry): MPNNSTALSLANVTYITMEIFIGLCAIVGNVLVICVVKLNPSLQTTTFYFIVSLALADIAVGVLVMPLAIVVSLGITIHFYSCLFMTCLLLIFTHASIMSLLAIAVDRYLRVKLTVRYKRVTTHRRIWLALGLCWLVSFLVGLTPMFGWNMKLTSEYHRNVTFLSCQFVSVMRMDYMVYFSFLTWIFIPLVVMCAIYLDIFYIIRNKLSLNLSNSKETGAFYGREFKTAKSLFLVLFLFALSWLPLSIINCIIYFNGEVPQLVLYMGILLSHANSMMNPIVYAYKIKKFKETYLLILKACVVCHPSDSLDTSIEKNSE

[3] = molecular target: Adenosine receptor A2a (Homo sapiens) (UniProt P29274); assay: Percent displacement of [3H]-ZM 241385 binding to human adenosine A2A receptor expressed in CHO cells at 1 uM; format: cell-based
Adenosine receptor A1 = molecular target: T3, Adenosine receptor A1 (Homo sapiens, UniProt P30542); assay: biochemical
T3 sequence (P30542 whole entry): T1 sequence (whole entry)
Description: Displacement of [3H]DPCPX binding to human adenosine A1 receptor expressed in CHO cells

[4] = molecular target: T1, Adenosine receptor A1 (Homo sapiens); assay: Percent displacement of [3H]DPCPX binding to human adenosine A1 receptor expressed in CHO cells at 1 uM; format: cell-based

Adenosine receptor A2a (Homo sapiens), sequence (P29274 whole entry): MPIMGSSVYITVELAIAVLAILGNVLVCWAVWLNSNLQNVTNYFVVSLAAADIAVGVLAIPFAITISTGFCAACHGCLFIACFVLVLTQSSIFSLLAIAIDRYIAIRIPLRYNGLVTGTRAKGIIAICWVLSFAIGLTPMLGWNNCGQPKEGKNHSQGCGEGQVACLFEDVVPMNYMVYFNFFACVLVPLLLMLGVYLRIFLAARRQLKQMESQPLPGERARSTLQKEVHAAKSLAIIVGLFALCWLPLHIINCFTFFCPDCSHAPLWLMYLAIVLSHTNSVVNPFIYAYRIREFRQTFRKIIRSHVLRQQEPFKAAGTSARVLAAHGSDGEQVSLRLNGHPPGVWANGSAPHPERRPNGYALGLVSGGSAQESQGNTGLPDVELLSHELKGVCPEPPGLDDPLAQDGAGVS

Question: What does the source list for `N#Cc1c(N)nc(SCCO)c(C#N)c1-c1ccc(O)cc1`?
Answer: Change in cAMP [1]: -93%; Displacement [2]: 0%; Displacement [3]: 37%; Ki (Adenosine receptor A1): 23 nM

Question: What does the source list for `COc1ccc(-c2c(C#N)c(N)nc(SCCO)c2C#N)cc1OC`?
Answer: Displacement [2]: 0%; Displacement [3]: 25%; Displacement [4]: 25%

Question: With `Cc1ccc(-c2c(C#N)c(N)nc(SCCO)c2C#N)cc1` as the compound, how does the Change in cAMP [1] read?
Answer: -16%

Question: And the Displacement [2]?
Answer: 0%

Question: And the Displacement [3]?
Answer: 20%

Question: What about the Ki (Adenosine receptor A1) of the same compound?
Answer: 49 nM

Question: `N#Cc1c(N)nc(SCCO)c(C#N)c1-c1ccc(OC(F)F)cc1` was tested. Which Change in cAMP [1] did it give?
Answer: 4%

Question: What about the Displacement [2] of the same compound?
Answer: 23%

Question: And the Displacement [3]?
Answer: 0%

Question: And the Ki (Adenosine receptor A1)?
Answer: 34 nM

Question: With `N#Cc1c(N)nc(SCCO)c(C#N)c1-c1cccc(O)c1` as the compound, how does the Change in cAMP [1] read?
Answer: -105%

Question: And the Displacement [2]?
Answer: 16%

Question: And the Displacement [3]?
Answer: 25%

Question: And the Ki (Adenosine receptor A1)?
Answer: 12 nM

Question: With `Cc1cccc(-c2c(C#N)c(N)nc(SCCO)c2C#N)c1` as the compound, how does the Change in cAMP [1] read?
Answer: -78%

Question: And the Displacement [2]?
Answer: 5%

Question: What about the Displacement [3] of the same compound?
Answer: 29%

Question: What about the Ki (Adenosine receptor A1) of the same compound?
Answer: 81 nM

Question: For `N#Cc1c(N)nc(SCCO)c(C#N)c1-c1ccc(F)cc1`, which Change in cAMP [1] is on record?
Answer: -51%

Question: What about the Displacement [2] of the same compound?
Answer: 0%

Question: What about the Displacement [3] of the same compound?
Answer: 4%

Question: And the Ki (Adenosine receptor A1)?
Answer: 81 nM

Question: What does the source list for `N#Cc1c(N)nc(SCCO)c(C#N)c1-c1cccc(OC(F)(F)F)c1`?
Answer: Change in cAMP [1]: 80%; Displacement [2]: 11%; Displacement [3]: 3%; Ki (Adenosine receptor A1): 30 nM

Question: `N#Cc1c(N)nc(SCCO)c(C#N)c1-c1cccc(F)c1` was tested. Which Change in cAMP [1] did it give?
Answer: -102%

Question: What about the Displacement [2] of the same compound?
Answer: 8%

Question: What about the Displacement [3] of the same compound?
Answer: 19%

Question: And the Ki (Adenosine receptor A1)?
Answer: 40 nM

Question: How did the Change in cAMP [1] turn out when `N#Cc1c(N)nc(SCCO)c(C#N)c1-c1cccc(C(F)(F)F)c1` was run?
Answer: 85%

Question: And the Displacement [2]?
Answer: 49%

Question: And the Displacement [3]?
Answer: 22%

Question: What about the Ki (Adenosine receptor A1) of the same compound?
Answer: 14 nM

Question: For `N#Cc1c(N)nc(SCCO)c(C#N)c1-c1cccc(OC(F)F)c1`, which Change in cAMP [1] is on record?
Answer: 6%

Question: What about the Displacement [2] of the same compound?
Answer: 12%

Question: What about the Displacement [3] of the same compound?
Answer: 8%

Question: What about the Ki (Adenosine receptor A1) of the same compound?
Answer: 40 nM

Question: Which Change in cAMP [1] does the source give for `CN(C)c1ccc(-c2c(C#N)c(N)nc(SCCO)c2C#N)cc1` here?
Answer: -65%

Question: What about the Displacement [2] of the same compound?
Answer: 7%

Question: What about the Displacement [3] of the same compound?
Answer: 0%

Question: What about the Ki (Adenosine receptor A1) of the same compound?
Answer: 245 nM

Question: For `N#Cc1c(N)nc(SCCO)c(C#N)c1-c1ccc(C(F)(F)F)cc1`, which Change in cAMP [1] is on record?
Answer: 48%

Question: What about the Displacement [2] of the same compound?
Answer: 0%

Question: And the Displacement [3]?
Answer: 13%

Question: What about the Ki (Adenosine receptor A1) of the same compound?
Answer: 150 nM

Question: How did the Change in cAMP [1] turn out when `N#Cc1c(N)nc(SCCO)c(C#N)c1-c1ccc2c(c1)OCO2` was run?
Answer: -111%

Question: And the Displacement [2]?
Answer: 13%

Question: What about the Displacement [3] of the same compound?
Answer: 33%

Question: And the Ki (Adenosine receptor A1)?
Answer: 11 nM

Question: `N#Cc1c(N)nc(SCCO)c(C#N)c1-c1ccc(OC(F)(F)F)cc1` was tested. Which Change in cAMP [1] did it give?
Answer: 12%

Question: And the Displacement [2]?
Answer: 10%

Question: What about the Displacement [3] of the same compound?
Answer: 0%

Question: And the Ki (Adenosine receptor A1)?
Answer: 156 nM

Question: Which Change in cAMP [1] does the source give for `OC[C@H]1O[C@@H](n2cnc3c(NC4CCCC4)ncnc32)[C@H](O)[C@@H]1O` here?
Answer: -100%

Question: What does the source list for `COc1cccc(-c2c(C#N)c(N)nc(SCCO)c2C#N)c1`?
Answer: Change in cAMP [1]: -58%; Displacement [2]: 18%; Displacement [3]: 21%; Ki (Adenosine receptor A1): 4.3 nM

Question: `CCCn1c(=O)c2[nH]c(C3CCCC3)nc2n(CCC)c1=O` was tested. Which Change in cAMP [1] did it give?
Answer: 100%

Question: For `Cn1cnc2c(NC3CCCC3)ncnc21`, which Change in cAMP [1] is on record?
Answer: 72%

Question: And the Displacement [2]?
Answer: 15%

Question: What about the Ki (Adenosine receptor A1) of the same compound?
Answer: 1080 nM

Question: What does the source list for `N#Cc1c(N)nc(SCCO)c(C#N)c1-c1ccccc1`?
Answer: Change in cAMP [1]: -72%; Displacement [2]: 26%; Displacement [3]: 23%; Ki (Adenosine receptor A1): 15 nM

Question: How did the Change in cAMP [1] turn out when `COc1ccc(-c2c(C#N)c(N)nc(SCCO)c2C#N)cc1` was run?
Answer: -16%

Question: And the Displacement [2]?
Answer: 21%

Question: What about the Displacement [3] of the same compound?
Answer: 8%

Question: What about the Ki (Adenosine receptor A1) of the same compound?
Answer: 41 nM

Source: ChEMBL document CHEMBL1145202, “A series of ligands displaying a remarkable agonistic-antagonistic profile at the adenosine A1 receptor” (J Med Chem, 2005)
